Measurements taken from US20070021391A1, “Preventive/remedy for urinary disturbance” (priority 2003, published 2007).
pIC50: −log10 of the molar value. Structures can show the parent of a compound that is named as a salt.

Columns and labels:
male SD rat = test: Acetylcholine inductive salivation in rat (Example 5); type: in vivo; details: for Amount of saliva secreted: rat
Description: (§1) A male SD rat (CLEA Japan Inc.) with a body weight of about 400 g or a Hartley male guinea pig with a body weight of 400 to 500 g (Japan SLC) were used. After urethane anesthesia, sanitary cotton preliminarily weighed was inserted in the mouth of the animal and acetylcholine was intravenously administrated. After 5 minutes, the sanitary cotton was taken out to be weighed and the amount of saliva secreted was measured. The drug was intravenously administrated at 10 min before the administration of acetylcholine. The effect of oxybutynin was analyzed by paired t calibration and the concomitant use effect of the compound A was analyzed by William calibration.

Hartley male guinea pig = test: Acetylcholine inductive salivation in guinea pig (Example 5); type: in vivo
Description: as §1

[1] = system: Hartley male guinea pig, urethane anesthesia; test: Urine flow dynamic parameters with oxybutynin and compound A (Example 6); type: in vivo; details: oxybutynin 1 mg/kg
Description: A Hartley male guinea pig with a body weight of about 500 g (Japan SLC Hamamatsu) was used. After urethane anesthesia (1.4 g/kg, i.p.), the medial incision of the lower abdomen was carried out, and the bladder was exposed. Two injection needles (20G) with which a polyethylene tube (PE-100, Becton Dickinson, Franklin Lakes, N.J., USA) was linked were inserted in the bladder, and one needle was used for injection of saline and another needle was used for measurement of the inner pressure of the bladder. Further, a cannula (PE-10, Becton Dickinson) for injection of phenylephrine was inserted in right common jugular vein. […] The amount of urine eliminated was measured by an electronic weighing machine (GX-400, A&D, Tokyo) and the inner pressure of the bladder was measured using a pressure transducer (AP641G, NIPPON KODEN Corporation, Tokyo). The analogue data of the weight of urine and the inner pressure of the bladder were inputted in a multi-channel data analyzer (MP-100A-CE, Biopac systems), and analyzed by a proprietary software (Acqknowledge 3.7.1, Biopac systems). The sampling interval of data was 0.1 sec and a low pass filter was applied to the data of discharge amount and urine flow rate at 0.5 Hz in order to remove noise. A delay time of 0.1 sec in weighing the urine was rectified, and the urine flow rate was determined by differentiating the value of discharge amount. The dynamic state parameter of the flow of urine below was measured. A bladder volume, the maximum urine flow rate, urination efficiency (=amount of urination/bladder volume). The effect of oxybutynin was analyzed by the paired t calibration and the concomitant use effect of the compound A was analyzed by Dunnett calibration.

[2] = system: Hartley male guinea pig, urethane anesthesia; test: Pressure/flow study using guinea pig under continuous phenylephrine (Example 4); type: in vivo; details: 0.1 mg/kg, i.v.; phenylephrine 3 μg/animal/min
Description: A parameter (the maximum urine flow rate) at urination and a parameter (bladder compliance) at the collection of urine were also measured by a method similar as Example 3 shown below, with respect to the compounds B1 to B6 ([Table 8]).
A Hartley male guinea pig of 4 to 5 weeks old (Japan SLC) was used. After urethane anesthesia, the medial incision of the lower abdomen was carried out, and the bladder was exposed. Two injection needles (20G) with which a polyethylene tube (PE-100) was linked were inserted in the bladder, and one needle was used for injection of saline and another needle was used for measurement of the inner pressure of the bladder. A catheter was inserted in fernoral vein, and phenylephrine was continuously administrated at a flow rate of 3 μg/animal/min. Saline was continuously injected at a speed of 18 mL/h, the injection was stopped after intermittent urination was confirmed 2 times at minimum, and the saline in the bladder was removed by suction. Injection was started again, and the injection was stopped when the raise of the inner pressure of the bladder just before urination was confirmed. The amount of urine eliminated was measured by an electronic weighing machine and the inner pressure of the bladder was measured using a pressure transducer. The analogue data of the weight of urine and the inner pressure of the bladder were inputted in a multi-channel data analyzer (MP-100A-CE, Biopac systems), and analyzed by a proprietary software (Acqknowledge, Biopac systems). As the parameters, the maximum urine flow rate and bladder compliance were measured. Saline in the bladder was extracted after 10 min of the intravenous administration of the compound, and injection was started again to carry out measurement. The compounds were dissolved with DMSO so that administration volume was 0.5 mL/kg. The change rate of respective parameters before and after administration of the compounds was calculated and the calibration of significant difference was carried out by a solvent administration group and t calibration.

[3] = molecular target: T1, butyrylcholine esterase of human serum origin (Homo sapiens, UniProt P06276); test: biochemical; type: biochemical; details: mean value of twice tests; read-out: BuChE IC50
T1 construct: butyrylcholine esterase of human serum origin; purchased Biogenesis, Poole, UK; host or cells: human serum
T1 sequence (P06276 29-602): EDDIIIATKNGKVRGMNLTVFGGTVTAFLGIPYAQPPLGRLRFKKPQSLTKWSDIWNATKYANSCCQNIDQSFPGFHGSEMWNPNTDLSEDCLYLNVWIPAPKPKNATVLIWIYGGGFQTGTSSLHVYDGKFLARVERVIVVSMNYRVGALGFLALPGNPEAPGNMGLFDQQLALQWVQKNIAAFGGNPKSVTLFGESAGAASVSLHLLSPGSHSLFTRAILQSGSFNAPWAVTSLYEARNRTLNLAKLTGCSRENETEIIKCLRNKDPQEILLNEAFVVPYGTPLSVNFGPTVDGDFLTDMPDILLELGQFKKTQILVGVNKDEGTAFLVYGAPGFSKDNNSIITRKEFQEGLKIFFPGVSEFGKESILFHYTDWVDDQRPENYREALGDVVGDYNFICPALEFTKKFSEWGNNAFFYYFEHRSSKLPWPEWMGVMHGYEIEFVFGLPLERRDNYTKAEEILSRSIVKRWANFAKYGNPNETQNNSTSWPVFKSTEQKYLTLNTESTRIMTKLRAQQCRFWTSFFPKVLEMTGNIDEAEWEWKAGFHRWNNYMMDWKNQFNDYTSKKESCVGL
Description: The AChE inhibitory activity and the BuChE inhibitory activity were determined by a thiocholine method (Ellman method) using acetylcholine esterase of human erythrocyte origin (Sigma, St. Louis, Mo., USA) and butyrylcholine esterase of human serum origin (Biogenesis, Poole, UK). Acetylcholine esterase or butyrylcholine esterase was diluted to a concentration of 0.2 IU/mL with 80 mM tris-HCL buffers (pH=7.4) containing 0.3% bovine serum albumin (BSA) to prepare an enzyme preparation. […] The stock solution was diluted at 3-fold common ratio with 10% DMSO and 80 mM tris-HCl buffers containing 0.3% BSA. On a 96 wells microplate, 20 μL of the drug solution with a given concentration, 30 μL of 80 mM tris-HCl buffers containing 0.3% BSA and 50 μL of the enzyme preparation were distributed, and incubated at room temperature for 1 hour after shaking for 10 seconds. […] For the respective drugs, the test was repeated twice. The % of control of the increase in light absorption was calculated at each concentration with respect to the respective drugs. % of control=increase in light absorption of drug/increase in light absorption of control×100

[4] = molecular target: T2, acetylcholine esterase of human erythrocyte origin (Homo sapiens, UniProt P22303); test: biochemical; type: biochemical
T2 construct: acetylcholine esterase of human erythrocyte origin; purchased Sigma, St. Louis, Mo., USA; host or cells: human erythrocytes
T2 sequence (P22303 32-617 isoform P22303-2 limits assumed): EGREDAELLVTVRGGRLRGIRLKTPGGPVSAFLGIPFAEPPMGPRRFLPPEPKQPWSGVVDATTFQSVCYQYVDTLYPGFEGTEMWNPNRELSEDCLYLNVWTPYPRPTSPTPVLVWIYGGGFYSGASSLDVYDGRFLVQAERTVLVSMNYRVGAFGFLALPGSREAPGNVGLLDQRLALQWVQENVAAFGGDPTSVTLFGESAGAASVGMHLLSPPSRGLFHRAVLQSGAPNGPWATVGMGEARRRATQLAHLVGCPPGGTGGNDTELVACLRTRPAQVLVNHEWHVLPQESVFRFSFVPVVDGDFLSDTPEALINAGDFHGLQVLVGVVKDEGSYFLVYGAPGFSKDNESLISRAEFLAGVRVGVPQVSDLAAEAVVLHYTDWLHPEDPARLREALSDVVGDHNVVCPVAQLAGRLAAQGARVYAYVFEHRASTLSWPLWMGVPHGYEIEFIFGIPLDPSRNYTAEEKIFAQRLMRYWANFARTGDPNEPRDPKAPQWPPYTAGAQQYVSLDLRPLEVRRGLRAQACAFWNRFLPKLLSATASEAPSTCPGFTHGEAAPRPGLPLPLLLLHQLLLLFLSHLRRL

[5] = acetylcholine 1 mg/kg alone, 5 minutes

Question: Which results are given for CC(=O)OCC[N+](C)(C)C [Acetylcholine]?
Answer: Amount of saliva secreted (male SD rat; [5]): 0.27 ± 0.04 g; Amount of saliva secreted (Hartley male guinea pig; [5]): 0.23 ± 0.03 g

Question: Which results are given for CCN(CC)CC#CCOC(=O)C(O)(c1ccccc1)C1CCCCC1 (centres unmarked) [Oxybutynin]?
Answer: action on acetylcholine-induced secretion of saliva (male SD rat; rat and guinea pig (Tables 9 and 10)): significantly suppressed; Amount of saliva secreted (male SD rat; oxybutynin 0.1 mg/kg + acetylcholine 1 mg/kg): 0.17 ± 0.02 g; Bladder volume, proportion for value before administration (%) ([1]; iv alone): 28.87 ± 7.01 %; Maximum urine flow rate, proportion for value before administration (%) ([1]; iv alone): −44.42 ± 9.44 %; Urination efficiency, proportion for value before administration (%) ([1]; iv alone): −66.14 ± 5.91 %; action on bladder volume, maximum urine flow rate and urination efficiency ([1]; compound A 0.003, 0.01 mg/kg with oxybutynin): significant increase of bladder volume and the lowering of the maximum urine flow rate and urination efficiency were confirmed; Amount of saliva secreted (Hartley male guinea pig; oxybutynin 1 mg/kg + acetylcholine 1 mg/kg): 0.11 ± 0.02 g

Question: For Cn1c(=O)n(C)c2cc(C(=O)CCCCNCCc3ccccc3Cl)ccc21 [Compound B6, 5-[5-[[2-(2-chlorophenyl)ethyl]amino]pentanoyl]-1,3-dimethyl-1,3-dihydro-2H-benzoimidazol-2-one) hydrochloride], which “Bladder compliance, proportion for value before administration” value [2] is on record?
Answer: The value was 98.6 ± 6.9.

Question: What about the “Maximum urine flow rate, proportion for value before administration” value [2] of the same compound?
Answer: Its value is 147.1 ± 26.2.

Question: What about the pIC50 [3] of the same compound?
Answer: Its pIC50 is < 5.00.

Question: What about the Selectivity b/a ([4]; BuChE IC50/AChE IC50 (Table 3)) of the same compound?
Answer: Its Selectivity b/a is >140.

Question: And the pIC50 ([4]; mean value of twice tests, read-out: AchE IC50)?
Answer: Its pIC50 is 7.15.
